Molecules are shown by their SMILES.

The target in this test is T1, Rev-Erb alpha (Homo sapiens, UniProt P20393).
T1 sequence (P20393 284-614 limits assumed): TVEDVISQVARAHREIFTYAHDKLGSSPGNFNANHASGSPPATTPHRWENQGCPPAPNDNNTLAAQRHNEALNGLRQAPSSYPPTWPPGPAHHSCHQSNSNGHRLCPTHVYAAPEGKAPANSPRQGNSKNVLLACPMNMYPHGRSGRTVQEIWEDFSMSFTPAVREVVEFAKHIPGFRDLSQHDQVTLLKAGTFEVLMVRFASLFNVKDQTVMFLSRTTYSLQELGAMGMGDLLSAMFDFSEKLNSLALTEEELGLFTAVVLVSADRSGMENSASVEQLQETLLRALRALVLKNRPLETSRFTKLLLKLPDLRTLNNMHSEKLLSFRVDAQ
Kind of test: M2H (mammalian two-hybrid) cellular activation assay of Rev-Erb alpha. The test is classed as cell-based. Particulars: M2H assay, HEK293 cells; for EC50: Gal4-Rev-Erb alpha / VP16-NCoR, luciferase reporter; for Emax: relative to DMSO, at the tested dose, read-out: TOP activation. In outline: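 Six-point dose-response, 18 h, 37 °C, serum-free, in HEK293 cells carrying a Gal4-RE luciferase reporter with Gal4-Rev-Erb alpha or beta plus VP16-NCoR (corepressor interaction readout). EC50 and TOP activation (%) derived from luminescence across four experiments.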

One may read the EC50 as the concentration that produces a half-maximal response. High values mean lower potency in that assay, low ones higher potency in that assay. Consider `Clc1nnc2ccc(Oc3cc(CNC4CC4)ccc3-c3ccccc3)nn12` [Cpd.4-178, 3-chloro-6-(4-cyclopropylaminomethylbiphenyl-2-yloxy)-[1,2,4]triazolo[4,3-b]pyridazine], for which the EC50 lay in the range of 1 to 6 µM.

As to `Clc1nnc2ccc(Oc3cc(CNC4CCCC4)ccc3-c3ccccc3)nn12` [Cpd.4-179, 3-chloro-6-(4-cyclopentylaminomethylbiphenyl-2-yloxy)-[1,2,4]triazolo[4,3-b]pyridazine], the EC50 was 1 to 6 µM. For `Clc1nnc2ccc(Oc3cc(CNCC4CCCO4)ccc3-c3ccccc3)nn12` (centres unmarked) [Cpd.4-180], the EC50 is more than 6 µM and the Emax was more than 130%. Regarding `CS(=O)(=O)N1CCN(Cc2ccc(-c3ccccc3)c(Oc3ccc4nnc(Cl)n4n3)c2)CC1` [Cpd.4-182, 3-chloro-6-(4-(4-methanesulfonylpiperazin-1-ylmethyl)biphenyl-2-yloxy)-[1,2,4]triazolo[4,3-b]pyridazine], the EC50 fell in the range of 1 to 6 µM.

Compound `CC(C)(C)OC(=O)NCc1ccc(-c2ccccc2)c(Oc2ccc3nnc(Cl)n3n2)c1` [Cpd.4-186, 3-chloro-6-(4-tertbutyloxycarbonylaminomethylbiphenyl-2-yloxy)-[1,2,4]triazolo[4,3-b]pyridazine] had an EC50 of 1 to 6 µM.

In the case of `CC(C)C(=O)Nc1ccc(Oc2ccc3nnc(Cl)n3n2)c(-c2ccccc2)c1` [Cpd.4-192, 3-chloro-6-(5-isopropylcarbonylamino-biphenyl-2-yloxy)-[1,2,4]triazolo[4,3-b]pyridazine], the EC50 fell in the range of 1 to 6 µM. Compound `Cc1nc(-c2ccc(-c3ccccc3)c(Oc3ccc4nnc(Cl)n4n3)c2)no1` [Cpd.4-197, 3-chloro-6-(5-(5-methyl-1,2,4-oxadiazol-3-yl)-2-(phenyl)phenoxy)-[1,2,4]triazolo[4,3-b]pyridazine] came in with an EC50 of 0.1 to 1 µM. `Cc1nc(-c2ccc(Oc3ccc4nnc(Cl)n4n3)c(-c3ccccc3)c2)no1` [Cpd.4-198, 3-chloro-6-(4-(5-methyl-1,2,4-oxadiazol-3-yl)-2-(phenyl)phenoxy)-[1,2,4]triazolo[4,3-b]pyridazine] gave an EC50 of 0.1 to 1 µM. As to `Cc1nc(-c2ccc(-c3cccnc3)c(Oc3ccc4nnc(Cl)n4n3)c2)no1` [Cpd.4-199, 3-chloro-6-(5-(5-methyl-1,2,4-oxadiazol-3-yl)-2-(pyridin-3-yl)phenoxy)-[1,2,4]triazolo[4,3-b]pyridazine], the EC50 is more than 6 µM and the Emax was more than 130%.

In turn, `FC(F)(F)c1ccc(-c2ccccc2)c(Oc2nn3c(Cl)nnc3c3ccccc23)c1` [Cpd.5-1, 3-chloro-6-(4-trifluoromethyl-biphenyl-2-yloxy)-[1,2,4]triazolo[3,4-a]phthalazine] gave an EC50 of less than 0.1 µM.

Consider `Fc1ccc2c(Oc3cc(C(F)(F)F)ccc3-c3ccccc3)nn3c(Cl)nnc3c2c1` [Cpd.5-2, 3-chloro-6-(4-trifluoromethyl-biphenyl-2-yloxy)-9-fluoro-[1,2,4]triazolo[3,4-a]phthalazine], for which the EC50 fell in the range of 0.1 to 1 µM. The compound `CCc1c(Oc2cc(C(F)(F)F)ccc2-c2ccccc2)nn2c(Cl)nnc2c1CC` [Cpd.5-12, 3-chloro-7,8-diethyl-6-(4-trifluoromethyl-biphenyl-2-yloxy)-[1,2,4]triazolo[4,3-b]pyridazine] came in with an EC50 of 0.1 to 1 µM. Consider `Cc1ccc(-c2ccc(C(F)(F)F)cc2Oc2cc(C)c3nnc(Cl)n3n2)cn1` [Cpd.5-16, 3-chloro-8-methyl-6-(2-(6-methylpyridin-3-yl)-5-(trifluoromethyl)phenoxy)-[1,2,4]triazolo[4,3-b]pyridazine], for which the 50% effective concentration (EC50) is 0.1 to 1 µM. As for `Cc1ccc(-c2ccc(C(F)(F)F)cc2Oc2nn3c(Cl)nnc3cc2C)cn1` [Cpd.5-17, 3-chloro-7-methyl-6-(2-(6-methylpyridin-3-yl)-5-(trifluoromethyl)phenoxy)-[1,2,4]triazolo[4,3-b]pyridazine], the EC50 was in the range of 0.1 to 1 µM. Compound `Cc1ccc(-c2ccc(C(F)(F)F)cc2Oc2nn3c(Cl)nnc3c3ccccc23)cn1` [Cpd.5-18, 3-chloro-6-(2-(6-methylpyridin-3-yl)-5-(trifluoromethyl)phenoxy)-[1,2,4]triazolo[3,4-a]phthalazine] came in with an EC50 of 0.1 to 1 µM.

Turning to `Cc1ncccc1-c1ccc(C(F)(F)F)cc1Oc1cc(C)c2nnc(Cl)n2n1` [Cpd.5-19, 3-chloro-8-methyl-6-(2-(2-methylpyridin-3-yl)-5-(trifluoromethyl)phenoxy)-[1,2,4]triazolo[4,3-b]pyridazine], the concentration for a half-maximal effect (EC50) is 0.1 to 1 µM. In the case of `Cc1cc2nnc(Cl)n2nc1Oc1cc(C(F)(F)F)ccc1-c1cccnc1C` [Cpd.5-20, 3-chloro-7-methyl-6-(2-(2-methylpyridin-3-yl)-5-(trifluoromethyl)phenoxy)-[1,2,4]triazolo[4,3-b]pyridazine], the EC50 fell in the range of 0.1 to 1 µM.

For the compound `Cc1ncccc1-c1ccc(C(F)(F)F)cc1Oc1nn2c(Cl)nnc2c2ccccc12` [Cpd.5-21, 3-chloro-6-(2-(2-methylpyridin-3-yl)-5-(trifluoromethyl)phenoxy)-[1,2,4]triazolo[3,4-a]phthalazine], the EC50 is 0.1 to 1 µM. `FC(F)(F)c1ccc(-c2cncnc2)c(Oc2nn3c(Cl)nnc3c3ccccc23)c1` [Cpd.5-22, 3-chloro-6-(2-(pyrimidin-5-yl)-5-(trifluoromethyl)phenoxy)-[1,2,4]triazolo[3,4-a]phthalazine] yielded an EC50 of 0.1 to 1 µM.

As for `COc1ncccc1-c1ccc(C(F)(F)F)cc1Oc1nn2c(Cl)nnc2c(C)c1C` [Cpd.5-25, 3-chloro-7,8-dimethyl-6-((2-(2-methoxypyridin-3-yl))-5-(trifluoromethyl)phenoxy)-[1,2,4]triazolo[4,3-b]pyridazine], the EC50 was in the range of 1 to 6 µM. On to `COc1ncc(C)cc1-c1ccc(C(F)(F)F)cc1Oc1nn2c(Cl)nnc2cc1C` [Cpd.5-28, 3-chloro-7-methyl-6-((2-(2-methoxy-5-methylpyridin-3-yl))-5-(trifluoromethyl)phenoxy)-[1,2,4]triazolo[4,3-b]pyridazine], for which the EC50 was in the range of 1 to 6 µM. Consider `Cc1cc2nnc(Cl)n2nc1Oc1cc(C(F)(F)F)ccc1-c1cncnc1` [Cpd.5-29, 3-chloro-7-methyl-6-(2-(pyrimidin-5-yl)-5-(trifluoromethyl)phenoxy)-[1,2,4]triazolo[4,3-b]pyridazine], for which the 50% effective concentration (EC50) is 1 to 6 µM. The compound `Cc1cc(Oc2cc(C(F)(F)F)ccc2-c2cncnc2)nn2c(Cl)nnc12` [Cpd.5-30, 3-chloro-8-methyl-6-(2-(pyrimidin-5-yl)-5-(trifluoromethyl)phenoxy)-[1,2,4]triazolo[4,3-b]pyridazine] displayed an EC50 of 1 to 6 µM. Same read-out and setting: with `Cc1cc2nnc(Cl)n2nc1Oc1c(-c2cncnc2)ccc(C(F)(F)F)c1F` [Cpd.5-31, 3-chloro-6-(2-fluoro-6-(pyrimidin-5-yl)-3-(trifluoromethyl)phenoxy)-7-methyl-[1,2,4]triazolo[4,3-b]pyridazine] the figure was 1 to 6 µM.

The compound `COc1ncc(-c2ccc(C(F)(F)F)cc2Oc2cc(C)c3nnc(Cl)n3n2)cn1` [Cpd.5-34, 3-chloro-8-methyl-6-((2-(2-methoxypyrimidin-5-yl))-5-(trifluoromethyl)phenoxy)-[1,2,4]triazolo[4,3-b]pyridazine] had an EC50 of 0.1 to 1 µM. `COc1ncc(-c2ccc(C(F)(F)F)cc2Oc2nn3c(Cl)nnc3cc2C)cn1` [Cpd.5-35, 3-chloro-7-methyl-6-((2-(2-methoxypyrimidin-5-yl))-5-(trifluoromethyl)phenoxy)-[1,2,4]triazolo[4,3-b]pyridazine] gave an EC50 of 1 to 6 µM. `COc1ncc(-c2ccc(C(F)(F)F)cc2Oc2nn3c(Cl)nnc3c3ccccc23)cn1` [Cpd.5-36, 3-chloro-6-((2-(2-methoxypyrimidin-5-yl))-5-(trifluoromethyl)phenoxy)-[1,2,4]triazolo[3,4-a]phthalazine]: the EC50 fell in the range of 0.1 to 1 µM.

In turn, `Cc1cc(Oc2cc(C(F)(F)F)ccc2-c2cncnc2C(C)C)nn2c(Cl)nnc12` [Cpd.5-38, 3-chloro-8-methyl-6-((2-(4-isopropylpyrimidin-5-yl))-5-(trifluoromethyl)phenoxy)-[1,2,4]triazolo[4,3-b]pyridazine] registered an EC50 of 1 to 6 µM. Turning to `Cc1cc(Oc2cccc(C(F)(F)F)c2-c2cncnc2)nn2c(Cl)nnc12` [Cpd.5-42, 3-chloro-8-methyl-6-(2-(pyrimidin-5-yl)-3-(trifluoromethyl)phenoxy)-[1,2,4]triazolo[4,3-b]pyridazine], the EC50 lay in the range of 1 to 6 µM. The compound `Cc1ncncc1-c1ccc(C(F)(F)F)cc1Oc1cc(C)c2nnc(Cl)n2n1` [Cpd.5-45, 3-chloro-8-methyl-6-(2-(4-methylpyrimidin-5-yl)-5-(trifluoromethyl)phenoxy)-[1,2,4]triazolo[4,3-b]pyridazine] returned an EC50 of 1 to 6 µM.

Regarding `Cc1cc2nnc(Cl)n2nc1Oc1cc(C(F)(F)F)ccc1-c1cncnc1C` [Cpd.5-47, 3-chloro-7-methyl-6-(2-(4-methylpyrimidin-5-yl)-5-(trifluoromethyl)phenoxy)-[1,2,4]triazolo[4,3-b]pyridazine], the EC50 lay within 1 to 6 µM. Turning to `COc1ncc(-c2ccc(C(F)(F)F)cc2Oc2cc(C)c3nnc(Cl)n3n2)c(OC)n1` [Cpd.5-50, 3-chloro-6-(2-(2,4-dimethoxypyrimidin-5-yl)-5-(trifluoromethyl)phenoxy)-8-methyl-[1,2,4]triazolo[4,3-b]pyridazine], the EC50 was 1 to 6 µM. For `COc1ncc(-c2ccc(C(F)(F)F)cc2Oc2nn3c(Cl)nnc3cc2C)c(OC)n1` [Cpd.5-51, 3-chloro-6-(2-(2,4-dimethoxypyrimidin-5-yl)-5-(trifluoromethyl)phenoxy)-7-methyl-[1,2,4]triazolo[4,3-b]pyridazine], the EC50 is 1 to 6 µM.
